Laboratory results taken from patent publication US20240024255A1 (priority 2022, published 2024).
Marks after values point to notes of the source that are not given here.

What was measured:
[1] = target: Monoamine oxidase-B (MAO-B); experiment: MAO-B inhibition assay (rat liver homogenate); assay type: biochemical
Procedure: The rat liver tissues were quickly removed to wash in ice-cold potassium phosphate buffer (0.2 M, pH 7.6), and stored at −80° C. 5 g of liver tissue was homogenized (1:20, w/v) in 0.3 M sucrose at 4° C. and centrifuged at 2000×g for 10 min. The supernatant was further centrifuged at 12000×g for 25 min. The resulting pellet suspended in minimal volume in 0.3 M sucrose and overlay on 1.3 M sucrose and centrifuge at 12000×g (40 min) to obtain a crude mitochondrial pellet. The pellet was resuspended in 2 mL 0.2 M phosphate buffer (pH 7.6) used as MAO-B enzyme source. Total protein concentration was measured by the method of Bradford and adjusted with buffer (0.2 M; pH 7.6) to 0.5 mg protein per ml (stock solution) and stored at −80° C. in aliquots until required.
The assay was carried out in 96-well microplates according to the process modified by Holt' et al. (1997). […] Paragyline was used as the standard inhibitor.

[2] = test system: carrageenan-induced paw edema; experiment: Carrageenan-induced acute inflammatory model (paw edema); assay type: in vivo, Wistar rats; conditions: Indomethacin 10 mg/kg.bw
Procedure: Wistar rats were randomly allotted into six groups (n=6) and kept for 7-day acclimatization. Group 1 was treated as control, group 2 received indomethacin 10 mg/kg.bw. […] All animal studies have been carried out by following the animal ethical guidelines and regulation of Institutional Animal Ethics Committee of Vidya Herbs Pvt. Ltd. Bangalore. India. with the protocol number VHPL/PCL/IAEC/08/19.
The carrageenan-induced paw edema test was performed in accordance with the method 17 with some modifications. Drugs were administered to all the respective groups. One hour later, the animals were injected with 0.01 mL of 1% (w/v) freshly prepared carrageenan solution into the right-hind paw sub plantar injection. Paw thickness and volume were measured after 30 min, 1, 2, 4, and 24 h after carrageenan injection using Vernier callipers and Plethysmometer, respectively. The percentage inhibition of inflammation was calculated.
Data were analyzed using one-way analysis of variance (ANOVA) with Duncan multiple range test for means ±standard error, where *P<0.001 was considered to indicate statistically significant difference between groups. All the experimental data were derived from three independent experiments.

[3] = design: species or system Wistar rats; conditions: rat, in vivo, po, 1000 mg/kg
Procedure: Twelve healthy male Wistar rats aged 10-12-week-old (250-300 g) were used for the bioavailability study. The animals were procured from Biogen Laboratory Animal Facility, Bangalore, India (Reg No. 971/PO/RcBiBt/S/06/CPCSEA). All the animals were housed in air-conditioned room under temperature (22±3° C.) and humidity (30-70%) controlled environment. The rats were fed standard rodent diet and water ad libitum. The animal experimentation protocol was approved by the Institutional Animal Ethics Committee (IAEC) of Vidya Herbs Pvt Ltd., Bangalore, India (VHPL/PCL/IAEC/02/2021).
After 7-day acclimatization, the animals were fasted overnight prior to the experiment, with free access to water. […] The sample size was determined by power analysis (Festing and Altman, 2002) using the formula,
The extracts were formulated in a mixture of Cremaphor, Tween 80, ethanol, and water. The extracts were administered by oral gavage at a single dose of 1000 mg/kg. The animals were anesthetised in anaesthesia chamber supplied with 2% gaseous isoflurane. Blood samples were collected from tail vein at 0.25, 0.5, 1, 2, 4, 8, 12 and 24 h after oral administration of extracts. The blood samples collected in heparinized tubes were centrifuged at 3000 rpm for 10 min. The plasma samples were stored at −20° C. for further analysis. […]

[4] = assay type: in vitro ADME
Procedure: Briefly, 20 mL of the saline solution containing 1 mL plant extracts were acidified to pH 2.0 by adding porcine pepsin preparation (40 mg/mL in 0.1 M HCl) and allowed for gastric digestion at 37° C. in a shaker incubator. After 1 h, the pH of the solution was adjusted to 5.3 using 0.9 M NaHCO3 solution. To this added 200 μL of bovine and porcine bile extract solution (100 mg/mL in saline), and 100 μL of pancreatin solution (80 mg/mL in saline). The pH was readjusted to 7.5 using 1 M NaOH followed by incubation at 37° C. for 2 h to accomplish the intestinal digestion phase. Aliquots of samples before and after digestion were centrifuged at 5000 g; upper phase used for anti-lipase and antioxidant assays. The samples were further used for HPLC analysis to determine the bioavailability.
HPLC analysis of the samples before and after gastrointestinal digestion was performed following the in-house validated chromatographic conditions using a Shimadzu LC2030 C Prominence-i (Japan) system equipped with a high sensitivity LC2030 ultraviolet (UV) detector and LabSolutions software.

## C#CCN(C)Cc1ccccc1 [paragyline]
[1]
  MAO-B IC-50: 6.5 µg/mL

## COc1ccc2c(c1)c(CC(=O)O)c(C)n2C(=O)c1ccc(Cl)cc1 [Indomethacin]
[2]; 0 h
  Paw thickness: 2.41 ± 0.12 mm
  Paw volume: 1.12 ± 0.04 mL
[2]; 0.5 h
  Paw thickness: 3.18 ± 0.09*** mm
  Paw volume: 1.32 ± 0.04** mL
[2]; 1 h
  Paw thickness: 3.73 ± 0.07*** mm
  Paw volume: 1.57 ± 0.08*** mL
[2]; 2 h
  Paw thickness: 3.12 ± 0.11*** mm
  Paw volume: 1.47 ± 0.06*** mL
[2]; 4 h
  Paw thickness: 2.67 ± 0.09*** mm
  Paw volume: 1.37 ± 0.03*** mL
[2]; 24 h
  Paw thickness: 2.43 ± 0.10*** mm
  Paw volume: 1.16 ± 0.05*** mL

## O=C(/C=C/c1ccc(O)cc1)CC(=O)/C=C/c1ccc(O)cc1 [BDMC, bisdemethoxycurcumin]
[3]
  AUC0-Last: markedly increased
[4]
  bioavailability with respect to undigested sample: considerably higher
  concentration in the samples at different digestive phases: remained unchanged
